# “Also recorded” adds a separate entry of the source. Read-outs that look alike come from different tables or passages of the source.
# Assays:
# [1] = system: cleaved caspase 7, cleaved PARP, γ-H2AX in MCF7, MDA-MB-231 and HCT116 cells; experiment: Western blot for apoptosis markers; type: cell-based, human; conditions: STS as positive control
# Procedure: (A) FACS analysis of HCT116 cells after treatment for 2, 4, or 8 hours with vehicle, 30 μM 3-BP, 30 μM NEO218, or 1 μM staurosporine (STS). […] (B) Western blot analysis of apoptotic markers. In the top section, MDA-MB-231 cells were treated with 30 μM NEO218 or 1 μM STS for various time points. In the lower section, HCT116 cells were treated with the indicated concentrations of 3-BP, NEO218, or STS for 16 hours. In all cases cell lysates were prepared and analyzed for the well-established apoptotic markers cleaved PARP, cleaved (i.e., activated) caspase 7 (cl. C-7), and phosphorylated (i.e., active) H2AX. Actin was used as a loading control. (C) HCT116 cells were pretreated with 50 μM Z-VAD-FMK for one hour, followed by the addition of increasing concentrations of 3-BP or NEO218. Cell viability was determined by MTT assay 24 hours later. Data points are averages from n=3.
# The capacity for NEO218 to induce apoptosis was evaluated in a series of experiments. Three different cell lines were treated 3-BP and NEO218. Drug-treated cells were harvested, and cellular lysates were analyzed by Western blot for the presence of the three well-established markers of apoptosis: • cleaved caspase 7 (cl. C7); • cleaved (cl.) vs. full-length (f.l.) PARP; and, • induction of γ-H2AX (which indicates DNA cleavage).
# The appearance of cl. C7 and cl. PARP is indicative of ongoing apoptotic processes. In all cases, lysates were also probed for the presence of actin as a control.
# Two breast cancer cell lines (MCF7 and MDA-MB-231) and one colon cancer cell line (HCT116) were treated with increasing concentrations of NEO218 or 3-BP. As a control, they were also treated with staurosporine (STS), a known potent inducer of apoptosis. Western blot analyses for the presence of apoptosis markers are shown in the left panels of FIG. 6.
# Total cell lysates were analyzed by Western blot analysis as described earlier. Primary antibodies against cleaved caspase 7 and PARP were obtained from Cell Signaling Technology (Danvers, Mass.), and antibodies against actin (C-11) and MCT1 (H-1) were obtained from Santa Cruz Biotechnology (Santa Cruz, Calif.). All antibodies were used according to the manufacturers' recommendations, except that in the case of MCT1 detection, the boiling step was omitted before loading the samples onto the polyacrylamide gel. All immunoblots were repeated at least once to confirm the results.
# [2] = system: HCT116 colon cancer cells; experiment: Cellular ATP content assay; type: cell-based, human; conditions: HCT116; 3 hours (FIG. 9) or 3 and 6 hours at 40 μM (FIG. 22)
# Procedure: HCT116 cells were treated with 40 μM 3-BP or NEO218. As a point of reference, cells were also exposed to 100 nM rotenone in glucose-free medium. ATP levels were determined after 3 and 6 hours. ATP levels in untreated cells were set at 100% (corresponding to 26.6 nmol per one million cells).
# HCT116 colon cancer cells were treated cells with: NEO218, 3-BP; rotenone (a mitochondrial poison that blocks the respiratory chain); medium without glucose (“no gluc”; in order to shut down glycolysis); and, rotenone in combination with absent glucose (to cease all intracellular ATP production). After 3 hours of treatment, a commercially available ATP detection assay kit was employed to determine the relative levels of ATP present.
# ATP content of cells was measured with the ATP Colorimetric/Fluorometric Assay kit (Biovision Inc., Milpitas, Calif.), which utilizes the phosphorylation of glycerol to generate a product that is quantified by colorimetry at 570 nm. Approximately 1×10^6 cells were cultured in 10-cm tissue culture plates, exposed to drug treatment for various time periods, and then processed as per manufacturer's instructions. All ATP levels were normalized to untreated controls and presented as percentage of controls.
# [3] = target: T1, GAPDH (Oryctolagus cuniculus, UniProt P46406); experiment: Mass spectrometry of purified GAPDH protein incubated with drug (cysteine modification); type: binding, rabbit; conditions: 60 μM drug, 15 minutes
# T1 construct: Purified GAPDH protein (30 μg, 1 μg/μl) from rabbit muscle (ScienCell Research Laboratories); purchased ScienCell Research Laboratories; host or cells: rabbit muscle
# T1 sequence (P46406 whole entry): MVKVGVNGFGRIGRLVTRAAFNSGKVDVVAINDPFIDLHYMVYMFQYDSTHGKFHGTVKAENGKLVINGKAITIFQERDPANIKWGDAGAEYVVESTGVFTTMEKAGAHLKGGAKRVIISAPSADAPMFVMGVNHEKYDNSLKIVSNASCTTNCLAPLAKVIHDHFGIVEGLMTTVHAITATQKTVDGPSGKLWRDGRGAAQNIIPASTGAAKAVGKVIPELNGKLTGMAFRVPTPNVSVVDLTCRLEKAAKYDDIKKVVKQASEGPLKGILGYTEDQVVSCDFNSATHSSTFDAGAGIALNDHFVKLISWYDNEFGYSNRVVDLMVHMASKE
# Procedure: Direct interaction of NEO218 with different targets was analyzed by LC/MS analysis. (A) Purified rabbit GAPDH protein was incubated with 3-BP or NEO218 for 15 minutes, followed by LC/MS analysis. GAPDH protein contains 4 cysteines (Cys) at the indicated positions, and all four were identified as being modified with a pyruvate moiety in the case of 3-BP, and a pyruvate-perillyl alcohol moiety in the case of NEO218 (indicated by pyr). (B) Extracted ion chromatogram (XIC) of the reaction products of NEO218 and GSH restricted to mass over charge (m/z) values between 528 and 529. […] Location and relative size of the peak at 529.204 corresponds to the ^13C isotope peak of the reaction product. (C) Reaction of NAC with NEO218 yielded several products shown in the ion map (top panel). The co-eluting twin isotope at m/z 539 and 541 distributed equally (insert in top panel) and was selected for further analysis, as shown in the two chromatograms in the bottom panels.
# Thirty microgram of purified GAPDH protein was incubated in vitro with 60 μM 3-BP for 15 minutes at 37° C. Mass spectrometrical analysis was then used to determine whether 3-BP could directly bind to the amino acid sequence of the enzyme. […]
# [4] = system: MCF7, 231, T47D, BTB-12, ME16C, 468, HCT116 cells; experiment: MTT cytotoxic IC50 aligned with MCT1 expression levels (FIG. 14); conditions: Homo sapiens
# Procedure: The expression levels of MCT1 in different tumor cell lines were determined by Western blot analysis and correlated with cytotoxic IC50 values in response of treatment of the same cells with NEO218 or 3-BP generated by MTT assay.
SMILES,"induction of apoptosis markers (cleaved PARP, cleaved caspase 7, γ-H2AX) [1]",depletion of cellular ATP pools [2],cysteine residues of GAPDH modified [3],"IC50 ([4]; HCT-116, read-out: cytotoxic IC50)",IC50 ([4]; read-out: cytotoxic IC50)
"O=C(O)C(=O)CBr [3-BP, 3-bromopyruvate]","responded only minimally, if at all",nearly identical outcomes; also recorded: potently depletes the levels of cellular ATP pools,Cysteines at amino acid positions 245 and 282 turned out to be pyruvylated; also recorded: all 4 cysteines were altered by the addition of pyruvate,< 100 µM,> 300 µM
"C=C(C)[C@@H]1CC=C(COC(=O)C(=O)CBr)CC1 [NEO218, 3-bromo-2-oxo-propionic acid 4-isopropenyl-cyclohex-1-enylmethyl ester]","responded only minimally, if at all; also recorded: barely affects these same markers",nearly identical outcomes; also recorded: potently depletes the levels of cellular ATP pools,the same four residues revealed attachment of pyruvate-perillyl alcohol moieties,,< 35 µM
